Assay results as given in patent publication US20080138317A1, “Use of biocompatible amphiphilic polymers as an anti-inflammatory agent” (priority 2004, published 2008).

Test system: TNF-α release from monocytes
Type: cell-based
Settings: supernatant of human monocytes after overnight incubation; okadaic acid (OA) 50 nM; troglitazone 30 μm; MGSA polymers 50%; ELISA
Method: Human monocytes were isolated from freshly collected buffy coat preparations of whole human blood. Briefly, whole blood was diluted 1:1.33 with sterile phosphate buffered solution (PBS) and layered over Histopaque, which was then centrifuged for 30 minutes at 1500 rpm at room temperature. The interface was harvested and washed with PBS, followed by another centrifugation at 1500 rpm for 10 minutes. A final wash was performed in RPMI 1640 with 10% fetal bovine serum (FBS). Cells were counted using a hemacytometer and seeded at 2.4×10^6 cells/300 μl into a 48-well tissue culture treated plate. Cells were incubated for 1 hour at 37° C., 5% CO2 and non-adherent cells were removed with a PBS wash. 300 μl of RPMI 1640 with 10% FBS was added back to the cells along with the various test conditions; cells in media alone, with DMSO (the vehicle used to reconstitue okadaic acid and troglitazone), with okadaic acid (OA, 50 nM), with OA and troglitazone (30 μm), with OA and monostearyl glyceride succinic anhydride (MGSA)-liquid (3305-15, 50%), and with OA and MGSA-solid (2804-60, 50%). The supernatants were collected after overnight incubation at 37° C., 5% CO2 and later analyzed for TNF-α by ELISA.

SMILES	TNF-α
C=C1[C@@H](O)[C@@H]2O[C@]3(CC[C@H](/C=C/[C@@H](C)[C@@H]4CC(C)=C[C@@]5(O[C@H](C[C@@](C)(O)C(=O)O)CC[C@H]5O)O4)O3)CC[C@H]2O[C@@H]1[C@@H](O)C[C@H](C)[C@H]1O[C@@]2(CCCCO2)CC[C@H]1C [Okadaic Acid, okadaic acid]	575.765 ng/mL
Cc1c(C)c2c(c(C)c1O)CCC(C)(COc1ccc(CC3SC(=O)NC3=O)cc1)O2 (centres unmarked) [Troglitazone]	422.554 ng/mL
